Assay results: PubChem BioAssay (NCI)
Values joined by “and” are separate entries in the source; they are usually repeats but may differ in a detail not shown here. Equal entries are not always repeated.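 48-hour exposure; five concentrations; linearly interpolated endpoints. GI50 is the concentration that inhibits growth by half. TGI is the concentration that stops growth completely.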

Assays:
Assay in all cases: NCI tumour cell line growth inhibition, 48 h
SK-MEL-5 melanoma = system: SK-MEL-5 melanoma
NCI-H23 lung = system: NCI-H23 lung
UACC-62 melanoma = system: UACC-62 melanoma
HOP-92 NSCLC = system: HOP-92 NSCLC
SW-620 colon = system: SW-620 colon
RPMI-8226 leukemia = system: RPMI-8226 leukemia
HCC-2998 colon = system: HCC-2998 colon
SF-295 CNS = system: SF-295 CNS
NCI-H460 lung = system: NCI-H460 lung
MOLT-4 leukemia = system: MOLT-4 leukemia

SMILES	TGI (SK-MEL-5 melanoma)	TGI (NCI-H23 lung)	TGI (UACC-62 melanoma)	TGI (HOP-92 NSCLC)	TGI (SW-620 colon)	TGI (RPMI-8226 leukemia)	TGI (HCC-2998 colon)	TGI (SF-295 CNS)	TGI (NCI-H460 lung)	TGI (MOLT-4 leukemia)	GI50 (SK-MEL-5 melanoma) [µM]	GI50 (NCI-H23 lung)	GI50 (UACC-62 melanoma)	GI50 (HOP-92 NSCLC)	GI50 (SW-620 colon)	GI50 (RPMI-8226 leukemia)	GI50 (HCC-2998 colon)	GI50 (SF-295 CNS)	GI50 (NCI-H460 lung)	GI50 (MOLT-4 leukemia)
CCCCCCCCCCCCCCCC(=O)OCC1OC(n2cc(F)c(=O)[nH]c2=O)C(NC(=O)OCc2ccccc2)C(O)C1O (centres undefined)	36.1 µM	43.6 µM	35.3 µM	31.5 µM	73 µM	39.3 µM	31.9 µM	32.5 µM	38.9 µM	38.3 µM	–	–	–	–	–	–	–	–	–	–
C#COc1cccc(Nc2ncnc3cc(NC(=O)[C@@H](C)Cl)ccc23)c1	32.8 µM	> 62.5 µM	> 62.5 µM	> 62.5 µM	> 62.5 µM	> 62.5 µM	> 62.5 µM	61.2 µM	> 62.5 µM	> 62.5 µM	4.09	17.2 µM	5.48 µM	> 62.5 µM	3.95 µM	13.8 µM	13.9 µM	8.22 µM	7.63 µM	4.29 µM
COC(=O)c1ccc(NC(N)=NCCC(C)(C)c2ccc(C(F)(F)F)cc2)nc1	2.99 µM	11.5 µM	3.07 µM	23.8 µM	4.19 µM	4.26 µM	3.64 µM	3.51 µM	4.56 µM	7.33 µM	1.56	2.15 µM	1.58 µM	5.54 µM	2.03 µM	1.65 µM	1.79 µM	1.63 µM	2.06 µM	1.88 µM
S=C(Sc1ccc(Cl)cc1)Sc1ccc(Cl)cc1	3.11 µM	3.78 µM	10.6 µM	5.01 µM	3.01 µM	3 µM	10.3 µM	6.58 µM	13.4 µM	4.53 µM	1.68	1.75 µM	3.15 µM	1.99 µM	1.62 µM	1.09 µM	3.08 µM	1.01 µM	3.12 µM	1.27 µM
O=C(O)c1ccccc1NCn1nc(-c2ccccc2O)oc1=S	> 100 µM	> 100 µM	92.3 µM	94.6 µM	> 100 µM	24.5 µM	86.7 µM	> 100 µM	> 100 µM	30 µM	73.4	40.1 µM	33.7 µM	30.4 µM	33.8 µM	4.14 µM	33.7 µM	> 100 µM	39.5 µM	9.98 µM
O=C(Nc1ccc(-n2cc(-c3ccncc3)c(-c3ccc(Cl)c(O)c3)n2)cc1)c1cc(C(F)(F)F)cc(C(F)(F)F)c1	3.63 µM	29.5 µM	> 100 µM	26.2 µM	35.6 µM	> 100 µM	> 100 µM	18.1 µM	14 µM	> 100 µM	1.55	6.09 µM	14.4 µM	3.89 µM	5.4 µM	3.86 µM	> 100 µM	3.31 µM	3.82 µM	8.87 µM
CNC(=O)OCc1nc(SSc2nc(COC(=O)NC)c(COC(=O)NC)n2C)n(C)c1COC(=O)NC	> 100 µM	> 100 µM	> 100 µM	> 100 µM	> 100 µM	> 100 µM	> 100 µM	> 100 µM	> 100 µM	> 100 µM	–	–	–	–	–	–	–	–	–	–
O=C([O-])c1ccc([I+]c2ccccc2)cc1	> 100 µM	> 100 µM	> 100 µM	> 100 µM	> 100 µM	> 100 µM	> 100 µM	> 100 µM	> 100 µM	> 100 µM	–	–	–	–	–	–	–	–	–	–
COc1ccc(-c2cnc(-c3ccncc3-c3cccc(OC)c3)o2)cc1	0.226 µM	13 µM	15.5 µM	20.2 µM	19.3 µM	5.75 µM	14.3 µM	13.8 µM	4.03 µM	17.2 µM	0.0379	0.0383 µM	0.0508 µM	0.403 µM	0.0383 µM	0.0387 µM	0.0799 µM	0.0294 µM	0.0365 µM	0.0617 µM
Cc1nc2sccn2c1C(=O)NNC(N)=S	> 100 µM	> 100 µM	> 100 µM	> 100 µM	> 100 µM	> 100 µM	> 100 µM	> 100 µM	> 100 µM	> 100 µM	–	–	–	–	–	–	–	–	–	–
O=C1C=CC2(O)OCC3C=C4O[C@@H]5OC6(CCCCC6)O[C@@H]5C4[C@@H]2[C@@H]13 (some centres undefined)	> 100 µM	67.3 µM	> 100 µM	33.4 µM	71.4 µM	58.9 µM	> 100 µM	> 100 µM	> 100 µM	70.5 µM	–	–	–	–	–	–	–	–	–	–
COS(=O)c1cc(Cl)cc(Cl)c1OC(=O)CSSCC(=O)Oc1c(Cl)cc(Cl)cc1S(=O)OC (centres undefined)	32.4 µM	27.8 µM	21.4 µM	53.2 µM	58.4 µM	38.3 µM	40.3 µM	67.5 µM	55.5 µM	46.2 µM	–	–	–	–	–	–	–	–	–	–
CC(C)(C)O/N=C/c1cc(NC(=S)c2ccccc2)ccc1Cl	41.5 µM	34.1 µM	32.7 µM	34.4 µM	45.3 µM	41 µM	24.2 µM	51.3 µM	24.3 µM	39.7 µM	–	–	–	–	–	–	–	–	–	–
Cc1ccc(C(=O)Nc2ccc(Oc3cc4cnn(C)c4cc3-c3cn[nH]c3)c(F)c2)c(=O)n1-c1ccc(F)cc1	> 100 µM	> 100 µM	> 100 µM	> 100 µM	> 100 µM	> 100 µM	> 100 µM	> 100 µM	> 100 µM	> 100 µM	5.59	8.97 µM	2.08 µM	2.34 µM	> 88.9 µM	> 48 µM	> 100 µM	0.0856 µM	8.12 µM	> 100 µM
CCN(CC)CCNc1n[n+]([O-])c2cc([N+](=O)[O-])ccc2[n+]1[O-]	2.01 µM and 1.56 µM and 1.7 µM	1.55 µM and 1.58 µM and 1.94 µM	2.11 µM and 1.56 µM and 1.5 µM	1.93 µM and 2.53 µM and 2.28 µM	3.14 µM and 2.45 µM and 2.33 µM	1.77 µM and 1.72 µM and 1.02 µM	1.53 µM and 2.01 µM and 0.57 µM	1.95 µM and 3.08 µM and 2.64 µM	1.63 µM and 1.16 µM and 1.28 µM	0.292 µM and 0.198 µM and 0.176 µM	–	0.117 µM and 0.275 µM and 0.146 µM	0.532 µM and 0.309 µM and 0.244 µM	0.163 µM and 0.297 µM and 0.449 µM	0.737 µM and 0.304 µM and 0.238 µM	0.27 µM and 0.285 µM and 0.122 µM	0.206 µM and 0.287 µM and 0.12 µM	0.253 µM and 0.447 µM and 0.186 µM	0.264 µM and 0.0353 µM and 0.0939 µM	0.0833 µM and 0.0383 µM and 0.0339 µM
